The source of these data is paper PMC5218480 (PLoS ONE, 2017).

In this test the test system is MV-4-11 cells. The test can be described thus: Gene expression microarray analysis (Affymetrix PrimeView) and GSEA. Format: cell-based, human. More on the design: RFU PODN (11730768_x_at) / Fold change /veh PODN (11730768_x_at) / RFU LINC00158 (11744669_a_at) / Fold change /veh LINC00158 (11744669_a_at) / RFU DUSP10 (11751237_a_at) / Fold change /veh DUSP10 (11751237_a_at) / RFU ID3 (11757404_x_at) / Fold change /veh ID3 (11757404_x_at) / RFU PLEKHG5 (11737974_s_at) / Fold change /veh PLEKHG5 (11737974_s_at) / RFU LRRC4B (11730491_at) / Fold change /veh LRRC4B (11730491_at) / RFU GIMAP4 (11747438_a_at) / Fold change /veh GIMAP4 (11747438_a_at) / RFU KRT8 (11758183_x_at) / Fold change /veh KRT8 (11758183_x_at) / RFU CNN1 (11734310_a_at) / Fold change /veh CNN1 (11734310_a_at) / RFU VPS37D (11726825_at) / Fold change /veh VPS37D (11726825_at) / RFU C10orf10 (11716522_x_at) / Fold change /veh C10orf10 (11716522_x_at) / RFU KIR2DL2 /// KIR2DL4 /// KIR2DL5A /// KIR2DL5B /// KIR2DS1 /// KIR2DS2 /// KIR2DS3 /// KIR2DS4 /// KIR3DL3 /// KIR3DL3 /// KIR3DS1 (11738374_at) / Fold change /veh KIR2DL2 /// KIR2DL4 /// KIR2DL5A /// KIR2DL5B /// KIR2DS1 /// KIR2DS2 /// KIR2DS3 /// KIR2DS4 /// KIR3DL3 /// KIR3DL3 /// KIR3DS1 (11738374_at) / RFU C1QL1 (11718748_at) / Fold change /veh C1QL1 (11718748_at) / RFU TMPRSS4 (11747572_a_at) / Fold change /veh TMPRSS4 (11747572_a_at) / RFU HAMP (11756126_x_at) / Fold change /veh HAMP (11756126_x_at) / RFU RNFT2 (11725882_a_at) / Fold change /veh RNFT2 (11725882_a_at) / RFU NR4A2 (11747474_a_at) / Fold change /veh NR4A2 (11747474_a_at) / RFU ABCC12 (11746883_a_at) / Fold change /veh ABCC12 (11746883_a_at) / RFU TMEM136 (11760407_x_at) / Fold change /veh TMEM136 (11760407_x_at) / RFU CLDN22 /// WWC2 (11732394_at) / Fold change /veh CLDN22 /// WWC2 (11732394_at) / RFU HLA-DPB1 (11760878_x_at) / Fold change /veh HLA-DPB1 (11760878_x_at) / RFU SPINT1 (11716480_a_at) / Fold change /veh SPINT1 (11716480_a_at) / RFU GAP43 (11754022_s_at) / Fold change /veh GAP43 (11754022_s_at) / RFU A4GNT (11735810_at) / Fold change /veh A4GNT (11735810_at) / RFU PRB3 (11715151_x_at) / Fold change /veh PRB3 (11715151_x_at) / RFU TUBB4B (11761932_at) / Fold change /veh TUBB4B (11761932_at) / RFU CAPN14 (11732068_a_at) / Fold change /veh CAPN14 (11732068_a_at) / RFU TMCC2 (11721928_a_at) / Fold change /veh TMCC2 (11721928_a_at) / RFU IRGQ (11745062_a_at) / Fold change /veh IRGQ (11745062_a_at) / RFU FAM174B (11720279_a_at) / Fold change /veh FAM174B (11720279_a_at) / RFU TMPRSS4 (11748680_a_at) / Fold change /veh TMPRSS4 (11748680_a_at) / RFU FAM212B (11763350_a_at) / Fold change /veh FAM212B (11763350_a_at) / RFU PLEKHG5 (11743358_a_at) / Fold change /veh PLEKHG5 (11743358_a_at) / RFU ZSCAN30 (11745921_a_at) / Fold change /veh ZSCAN30 (11745921_a_at) / RFU CMKLR1 (11741424_a_at) / Fold change /veh CMKLR1 (11741424_a_at) / RFU LOC101060620 /// MAPK8IP1 (11723275_at) / Fold change /veh LOC101060620 /// MAPK8IP1 (11723275_at) / RFU SPTSSB (11747773_x_at) / Fold change /veh SPTSSB (11747773_x_at) / RFU PRSS12 (11739890_at) / Fold change /veh PRSS12 (11739890_at) / RFU BIN1 (11741810_x_at) / Fold change /veh BIN1 (11741810_x_at) / RFU WNT11 (11732464_a_at) / Fold change /veh WNT11 (11732464_a_at) / RFU C10orf10 (11716521_a_at) / Fold change /veh C10orf10 (11716521_a_at) / RFU C5orf56 (11738089_at) / Fold change /veh C5orf56 (11738089_at) / RFU CYB561 (11721691_x_at) / Fold change /veh CYB561 (11721691_x_at) / RFU ANKRD19P (11752326_a_at) / Fold change /veh ANKRD19P (11752326_a_at) / RFU OR2T12 /// OR2T33 /// OR2T8 (11738714_s_at) / Fold change /veh OR2T12 /// OR2T33 /// OR2T8 (11738714_s_at) / RFU VCAN (11748164_a_at) / Fold change /veh VCAN (11748164_a_at) / RFU JSRP1 (11732532_at) / Fold change /veh JSRP1 (11732532_at) / RFU KRTAP10-11 (11738290_x_at) / Fold change /veh KRTAP10-11 (11738290_x_at) / RFU MYO3A (11730013_a_at) / Fold change /veh MYO3A (11730013_a_at) / RFU EBF3 (11725865_a_at) / Fold change /veh EBF3 (11725865_a_at) / RFU CAMK2N1 (11719241_x_at) / Fold change /veh CAMK2N1 (11719241_x_at) / RFU C5orf56 (11738088_a_at) / Fold change /veh C5orf56 (11738088_a_at) / RFU OLFML3 (11715873_a_at) / Fold change /veh OLFML3 (11715873_a_at) / RFU LOC100653217 /// NTM (11731650_a_at) / Fold change /veh LOC100653217 /// NTM (11731650_a_at) / RFU MAPK11 (11762145_a_at) / Fold change /veh MAPK11 (11762145_a_at) / RFU FIZ1 (11724087_x_at) / Fold change /veh FIZ1 (11724087_x_at) / RFU OASL (11726364_x_at) / Fold change /veh OASL (11726364_x_at) / RFU SOX15 (11748057_x_at) / Fold change /veh SOX15 (11748057_x_at) / RFU CD79A (11719716_a_at) / Fold change /veh CD79A (11719716_a_at) / RFU HIST1H1D (11736915_at) / Fold change /veh HIST1H1D (11736915_at) / RFU CASKIN2 (11723855_a_at) / Fold change /veh CASKIN2 (11723855_a_at) / RFU LOC730098 (11760151_x_at) / Fold change /veh LOC730098 (11760151_x_at) / RFU OR4N2 (11742367_at) / Fold change /veh OR4N2 (11742367_at) / RFU PRRT2 (11749266_a_at) / Fold change /veh PRRT2 (11749266_a_at) / RFU SNX32 (11753110_a_at) / Fold change /veh SNX32 (11753110_a_at) / RFU CDHR5 (11726645_a_at) / Fold change /veh CDHR5 (11726645_a_at) / RFU RCAN1 (11760418_a_at) / Fold change /veh RCAN1 (11760418_a_at) / RFU FAM167A (11723789_a_at) / Fold change /veh FAM167A (11723789_a_at) / RFU FAM26E (11764081_at) / Fold change /veh FAM26E (11764081_at) / RFU ISYNA1 (11749810_s_at) / Fold change /veh ISYNA1 (11749810_s_at) / RFU ACY1 (11761880_at) / Fold change /veh ACY1 (11761880_at) / RFU 11764098_at / Fold change /veh 11764098_at / RFU SAMD14 (11745864_x_at) / Fold change /veh SAMD14 (11745864_x_at) / RFU NPB (11741838_a_at) / Fold change /veh NPB (11741838_a_at) / RFU TMPRSS6 (11731388_a_at) / Fold change /veh TMPRSS6 (11731388_a_at) / RFU KRTAP10-2 (11738614_at) / Fold change /veh KRTAP10-2 (11738614_at) / RFU ARHGAP8 /// PRR5-ARHGAP8 (11727945_x_at) / Fold change /veh ARHGAP8 /// PRR5-ARHGAP8 (11727945_x_at) / RFU KRTAP5-7 /// NADSYN1 (11734609_at) / Fold change /veh KRTAP5-7 /// NADSYN1 (11734609_at) / RFU RASL12 (11751679_a_at) / Fold change /veh RASL12 (11751679_a_at) / RFU CDKN2B (11736163_a_at) / Fold change /veh CDKN2B (11736163_a_at) / RFU PRF1 (11729649_at) / Fold change /veh PRF1 (11729649_at) / RFU, ZNF638 /// ZNF638-IT1 / Fold change vs veh, ZNF638 /// ZNF638-IT1 / RFU, PANK3 / Fold change vs veh, PANK3 / RFU, SH3YL1 / Fold change vs veh, SH3YL1 / RFU, ZEB2 / Fold change vs veh, ZEB2 / RFU, NRIP1 / Fold change vs veh, NRIP1 / RFU, PTTG1IP / Fold change vs veh, PTTG1IP / RFU, CAPN2 / Fold change vs veh, CAPN2 / RFU, MED14 / Fold change vs veh, MED14 / RFU, SNORA58 / Fold change vs veh, SNORA58 / RFU, C1orf63 / Fold change vs veh, C1orf63 / RFU, LRRFIP1 / Fold change vs veh, LRRFIP1 / RFU, NDUFAF7 / Fold change vs veh, NDUFAF7 / RFU, SLC12A2 / Fold change vs veh, SLC12A2 / RFU, IBTK / Fold change vs veh, IBTK / RFU, ESF1 / Fold change vs veh, ESF1 / Fold change vs veh, TMEM50B / RFU, TAOK1 / Fold change vs veh, TAOK1 / RFU, ACBD3 / Fold change vs veh, ACBD3 / RFU, TMA16 / Fold change vs veh, TMA16 / RFU, RWDD3 / Fold change vs veh, RWDD3 / RFU, BCAT1 / Fold change vs veh, BCAT1 / RFU, EDEM3 / Fold change vs veh, EDEM3 / RFU, TMEM33 / Fold change vs veh, TMEM33 / RFU, WDR75 / Fold change vs veh, WDR75 / RFU, AHCTF1 / Fold change vs veh, AHCTF1 / RFU, TFRC / Fold change vs veh, TFRC / RFU, ZDHHC17 / Fold change vs veh, ZDHHC17 / RFU, NOM1 / Fold change vs veh, NOM1 / RFU, ARL8B / Fold change vs veh, ARL8B / RFU, ZBTB11 / Fold change vs veh, ZBTB11 / RFU, TAMM41 / Fold change vs veh, TAMM41 / RFU, KIAA1704 /// LOC100996395 / Fold change vs veh, KIAA1704 /// LOC100996395 / RFU, ING1 / Fold change vs veh, ING1 / RFU, TRMT61B / Fold change vs veh, TRMT61B / RFU, FUBP3 / Fold change vs veh, FUBP3 / RFU, TP53 / Fold change vs veh, TP53 / RFU, TNKS2 / Fold change vs veh, TNKS2 / RFU, ZFP14 / Fold change vs veh, ZFP14 / RFU, ACTR2 / Fold change vs veh, ACTR2 / RFU, PPP3R1 / Fold change vs veh, PPP3R1 / RFU, PIK3R1 / Fold change vs veh, PIK3R1 / RFU, HNRNPA1 / Fold change vs veh, HNRNPA1 / RFU, RNF170 / Fold change vs veh, RNF170 / RFU, ZNF28 / Fold change vs veh, ZNF28 / RFU, RNGTT / Fold change vs veh, RNGTT / RFU, OGT / Fold change vs veh, OGT / RFU, BRD1 / Fold change vs veh, BRD1 / RFU, MARS / Fold change vs veh, MARS / RFU, ZNF655 / Fold change vs veh, ZNF655 / RFU, FAHD1 / Fold change vs veh, FAHD1 / RFU, BDP1 / Fold change vs veh, BDP1 / RFU, LRRCC1 / Fold change vs veh, LRRCC1 / RFU, ARID1A / Fold change vs veh, ARID1A / RFU, ZNF146 / Fold change vs veh, ZNF146 / RFU, ZNF330 / Fold change vs veh, ZNF330 / RFU, GPN3 / Fold change vs veh, GPN3 / RFU, C9orf123 / Fold change vs veh, C9orf123 / RFU, N4BP2L2 / Fold change vs veh, N4BP2L2 / RFU, ARFIP1 / Fold change vs veh, ARFIP1 / RFU, FAM179B / Fold change vs veh, FAM179B / RFU, BCL10 / Fold change vs veh, BCL10 / RFU, UHRF1BP1L / Fold change vs veh, UHRF1BP1L / RFU, BET1 / Fold change vs veh, BET1 / RFU, CNOT2 / Fold change vs veh, CNOT2 / RFU, ZNF268 / Fold change vs veh, ZNF268 / Fold change vs veh, ZNF507 / RFU, DGCR2 / Fold change vs veh, DGCR2 / RFU, WDSUB1 / Fold change vs veh, WDSUB1 / Fold change vs veh, HSP90B1 /// MIR3652 / RFU, ADSS / Fold change vs veh, ADSS / RFU, GK / Fold change vs veh, GK / RFU, ZNF148 / Fold change vs veh, ZNF148 / RFU, TAF9 / Fold change vs veh, TAF9 / RFU, SLC1A5 / Fold change vs veh, SLC1A5 / RFU, SLMO2 / Fold change vs veh, SLMO2 / RFU, ABCC4 / Fold change vs veh, ABCC4 / RFU, LOC101060439 /// RAP1B / Fold change vs veh, LOC101060439 /// RAP1B / RFU, RFX7 / Fold change vs veh, RFX7 / RFU, GTPBP10 / Fold change vs veh, GTPBP10 / RFU, CNEP1R1 / Fold change vs veh, CNEP1R1 / RFU, BIVM-ERCC5 /// ERCC5 / Fold change vs veh, BIVM-ERCC5 /// ERCC5 / RFU, ILF3 / Fold change vs veh, ILF3 / RFU 11762660_at / Fold change /veh 11762660_at / RFU VCAN (11757783_s_at) / Fold change /veh VCAN (11757783_s_at) / RFU DDX43 (11728927_at) / Fold change /veh DDX43 (11728927_at) / RFU KRT8 (11758188_x_at) / Fold change /veh KRT8 (11758188_x_at) / RFU NKD1 (11759106_at) / Fold change /veh NKD1 (11759106_at) / RFU SRD5A1 (11742802_a_at) / Fold change /veh SRD5A1 (11742802_a_at) / RFU TPSAB1 /// TPSB2 (11721975_s_at) / Fold change /veh TPSAB1 /// TPSB2 (11721975_s_at) / RFU GSTM3 (11746129_a_at) / Fold change /veh GSTM3 (11746129_a_at) / RFU IL23R (11737362_x_at) / Fold change /veh IL23R (11737362_x_at) / RFU TMEM51 (11727254_a_at) / Fold change /veh TMEM51 (11727254_a_at) / RFU PIWIL2 (11732686_x_at) / Fold change /veh PIWIL2 (11732686_x_at) / RFU ORM1 (11744905_x_at) / Fold change /veh ORM1 (11744905_x_at) / RFU CCDC152 (11743942_at) / Fold change /veh CCDC152 (11743942_at) / RFU ECM1 (11717891_a_at) / Fold change /veh ECM1 (11717891_a_at) / RFU IL23R (11748794_a_at) / Fold change /veh IL23R (11748794_a_at) / RFU TNFAIP8L3 (11732012_x_at) / Fold change /veh TNFAIP8L3 (11732012_x_at) / RFU MBOAT4 (11741988_at) / Fold change /veh MBOAT4 (11741988_at) / RFU 11764193_at / Fold change /veh 11764193_at / RFU TMEM53 (11763286_at) / Fold change /veh TMEM53 (11763286_at) / RFU MAGEB2 (11727129_at) / Fold change /veh MAGEB2 (11727129_at) / RFU TMEM200A (11744735_a_at) / Fold change /veh TMEM200A (11744735_a_at) / RFU CCDC152 (11751479_a_at) / Fold change /veh CCDC152 (11751479_a_at) / RFU FAM211A (11726209_a_at) / Fold change /veh FAM211A (11726209_a_at) / RFU RGS16 (11746705_a_at) / Fold change /veh RGS16 (11746705_a_at) / RFU VCAN (11755009_s_at) / Fold change /veh VCAN (11755009_s_at) / RFU RHOB (11743442_s_at) / Fold change /veh RHOB (11743442_s_at) / RFU RGS16 (11720943_a_at) / Fold change /veh RGS16 (11720943_a_at) / RFU RGS16 (11720944_at) / Fold change /veh RGS16 (11720944_at) / RFU, VPS4B / Fold change vs veh, VPS4B / RFU, CREB1 / Fold change vs veh, CREB1 / RFU, DNAJC13 / Fold change vs veh, DNAJC13 / RFU, GNAQ / Fold change vs veh, GNAQ / RFU, CDK5R1 / Fold change vs veh, CDK5R1 / RFU, ZRANB3 / Fold change vs veh, ZRANB3 / RFU, CUL4A / Fold change vs veh, CUL4A / RFU, CCNY / Fold change vs veh, CCNY / RFU, UFL1 / Fold change vs veh, UFL1 / RFU, COG3 / Fold change vs veh, COG3 / RFU, DIAPH2 / Fold change vs veh, DIAPH2 / RFU, SKA2 / Fold change vs veh, SKA2 / RFU, AFF3 / Fold change vs veh, AFF3 / RFU, LMF1 / Fold change vs veh, LMF1 / RFU, IPO11 / Fold change vs veh, IPO11 / RFU, DFFB / Fold change vs veh, DFFB / RFU, FOXP1 / Fold change vs veh, FOXP1 / RFU, CARD8 / Fold change vs veh, CARD8 / RFU, STRN3 / Fold change vs veh, STRN3 / RFU, ADK / Fold change vs veh, ADK / RFU, RASSF2 / Fold change vs veh, RASSF2 / RFU, WIPF1 / Fold change vs veh, WIPF1 / RFU, LARP1B / Fold change vs veh, LARP1B / RFU, RASA1 / Fold change vs veh, RASA1 / RFU, RB1 / Fold change vs veh, RB1 / RFU, PPFIA1 / Fold change vs veh, PPFIA1 / RFU, MAT2A / Fold change vs veh, MAT2A / RFU, CCT5 / Fold change vs veh, CCT5 / RFU, WDR92 / Fold change vs veh, WDR92 / RFU, CUX1 / Fold change vs veh, CUX1 / RFU, TTC7A / Fold change vs veh, TTC7A / RFU, TMEM135 / Fold change vs veh, TMEM135 / RFU, DEPTOR / Fold change vs veh, DEPTOR / RFU, CPM / Fold change vs veh, CPM / RFU, DNAJB6 / Fold change vs veh, DNAJB6 / RFU, CACNA2D3 / Fold change vs veh, CACNA2D3 / RFU, DTX4 / Fold change vs veh, DTX4 / RFU, TFCP2 / Fold change vs veh, TFCP2 / RFU, GMCL1 /// GMCL1P1 / Fold change vs veh, GMCL1 /// GMCL1P1 / RFU, AEBP2 / Fold change vs veh, AEBP2 / RFU, SNHG1 /// SNORD22 /// SNORD25 /// SNORD26 /// SNORD27 /// SNORD28 /// SNORD29 /// SNORD31 / Fold change vs veh, SNHG1 /// SNORD22 /// SNORD25 /// SNORD26 /// SNORD27 /// SNORD28 /// SNORD29 /// SNORD31 / Fold change (Aza/veh), C12orf56 (ProbeSet 11735607_a_at) / Fold change (ACY-1035/veh), C12orf56 (ProbeSet 11735607_a_at) / Fold change (Aza/veh), FGFR1OP (ProbeSet 11751329_s_at) / Fold change (ACY-1035/veh), FGFR1OP (ProbeSet 11751329_s_at) / Fold change (Aza/veh), VPS36 (ProbeSet 11739960_a_at) / Fold change (ACY-1035/veh), VPS36 (ProbeSet 11739960_a_at) / RFU SYPL1 (11715823_x_at) / Fold change /veh SYPL1 (11715823_x_at) / RFU IGFBP7 (11715501_s_at) / Fold change /veh IGFBP7 (11715501_s_at) / RFU REEP3 (11722064_at) / Fold change /veh REEP3 (11722064_at) / RFU IGLL1 (11728026_x_at) / Fold change /veh IGLL1 (11728026_x_at): dose or concentration left out as unconfirmed. The settings on record: ProbeSet 11754362_a_at; LIST D.

The structures appear in SMILES notation.

Take `Nc1ccc(-c2cccs2)cc1NC(=O)c1ccc2c(c1)cc(C1CC1)n2CCN1CCOCC1` [ACY-1035]: the “RFU, TTC7A” value is given as 150.96 RFU.
